Reference: article PMC10004598, “Identification and Characterization of a Novel Cathelicidin from Hydrophis cyanocinctus with Antimicrobial and Anti-Inflammatory Activity” (Molecules, 2023)
Values after ≈ are worked out from the molar mass of the structure shown. Read-outs that look alike come from different tables or passages of the source. No end group written: not given here.

Experiments:
[1] = test system: Escherichia coli [ATCC 25922]; experiment: microbe, parasite or virus in culture
Description: (§1) The microorganisms (Staphylococcus aureus [ATCC 25923], Escherichia coli [ATCC 25922], and Propionibacterium acnes [ATCC 6919]) were obtained from Fuxiang Biotechnology (Shanghai, China). The five strains of K. pneumoniae clinical isolates (44, 48, 49, 50, and 51) were obtained from the Department of Critical Care Medicine, Shanghai Tenth People’s Hospital.
(§2) The antimicrobial assay was performed by broth microdilution method, following the guidelines of the Clinical and Laboratory Standards Institute. Strains (mentioned in Section 4.3) were inoculated into Mueller-Hinton broth (MH), oscillated (37 °C, 220 rpm, 12 h) to the logarithmic growth stage, and then diluted to 10^6 CFU/mL. […] Then, the absorbance was measured at 600 nm in a microplate reader (Epoch Biotek, Winooski, VT, USA). […] The minimum inhibitory concentration (MIC) was defined as the lowest concentration of an antimicrobial where there was no visible growth. After measuring the MIC, a 50 μL sample was taken from the growth well without visible bacteria, serially diluted with phosphate-buffered saline (PBS, pH = 7.0), then spread on an MH agar solid medium and incubated at 37 °C for 12 h. The number of colonies was calculated, and the minimum drug concentrations that killed 99.9% of bacteria were considered the minimum bactericidal concentration (MBC) of the peptide.

[2] = test system: K. pneumoniae 48 (clinical isolate); experiment: microbe, parasite or virus in culture
Description: as §1, §2

[3] = test system: K. pneumoniae 49 (clinical isolate); experiment: microbe, parasite or virus in culture
Description: as §1, §2

[4] = test system: K. pneumoniae 50 (clinical isolate); experiment: microbe, parasite or virus in culture
Description: as §1, §2

[5] = test system: K. pneumoniae 51 (clinical isolate); experiment: microbe, parasite or virus in culture
Description: as §1, §2

[6] = test system: Klebsiella pneumoniae 44 (clinical isolate); experiment: microbe, parasite or virus in culture
Description: as §1, §2

[7] = test system: Propionibacterium acnes [ATCC 6919]; experiment: microbe, parasite or virus in culture
Description: as §1, §2

[8] = test system: E. coli; type: cell-based, Escherichia coli; details: compound at MBC, 37 °C
Description: Time-killing kinetics were determined with the method as previously described. […] The mixture was sampled 50 μL at 5, 15, 30, 60, 120, 240, and 480 min. Dilute the samples with sterile MH broth to a 10-fold gradient. Bacterial suspensions were plated at MH agar plates. After incubation at 37 °C for 12 h, the number of colonies was calculated.

[9] = test system: Staphylococcus aureus [ATCC 25923]; details: broth microdilution, MH broth, 37 °C, 16–20 h
Description: as §1, §2

[10] = test system: S. aureus biofilm formation; experiment: Biofilm inhibition assay (crystal violet); type: cell-based, Staphylococcus aureus; details: 2 × MIC, 37 °C, 24 h, absorbance 600 nm, three independent experiments in quintuplicate
Description: Sterile PBS was used to wash 3 times and methanol was used to fix it for 0.5 h. After drying, 1% crystal violet solution was used to stain for 0.5 h, washed 3 times with sterilized deionized water, and dissolved with 100 μL anhydrous ethanol. The absorbance was measured at 600 nm.

[11] = test system: E. coli; details: mean of three independent experiments in triplicate
Description: E. coli was inoculated into MH broth and oscillated (37 °C, 220 rpm, 12 h) to the logarithmic growth stage. Then diluted to 10^6 CFU/mL in MH broth with NaCl (0, 50, 100, 150, and 200 mM) or CaCl2 (1, 2, and 4 mM). […] The absorption value was detected at 600 nm.

[12] = test system: E. coli; details: mean of three independent experiments in triplicate; remark: listed apart in the source
Description: E.coli was inoculated into MH broth and oscillated (37 °C, 220 rpm, 12 h) to the logarithmic growth stage. Then diluted to 10^6 CFU/mL. […] Then, the absorbance was measured at 600 nm.

[13] = test system: E. coli; details: mean of three independent experiments in triplicate; remark: listed apart in the source
Description: E. coli was inoculated into MH broth and oscillated (37 °C, 220 rpm, 12 h) to the logarithmic growth stage. Then diluted to 10^6 CFU/mL. […] The MICs of these peptides were then measured.

[14] = test system: HaCaT (human immortal keratinocyte cell line); experiment: Cytotoxicity assay (CCK-8); type: cell-based; details: 32 μg/mL, 24 h, mean of three independent experiments in triplicate
Description: (§3) RAW264.7 (murine macrophage cell line), L929 (mouse fibroblast cell line), and HaCaT (human immortal keratinocyte cell line) were purchased from the Shanghai Institute of Biochemistry and Cell Science, Chinese Academy of Sciences.
(§4) The cells were cultured using a DMEM medium containing 10%FBS and 1% penicillin-streptomycin solution. In 96-well plates, 100 µL of cells (2 × 10^4 cells/well) in DMEM were seeded and cultured overnight in an incubator at 5% CO2 and 37 °C. […] Subsequently, the medium was replaced by 100 μL DMEM containing 10% Cell Counting Kit-8 reagent, and incubated for 0.5 h at 37 °C. The absorbance was measured at […].

[15] = test system: L929 (mouse fibroblast cell line); experiment: Cytotoxicity assay (CCK-8); type: cell-based; details: L929, 32 μg/mL, 24 h, mean of three independent experiments in triplicate
Description: as §3, §4

[16] = test system: human erythrocytes; details: human erythrocytes 2% suspension, 250 μg/mL, 37 °C, 0.5 h, absorbance 540 nm, 1% Triton X-100 = complete hemolysis; mean of three independent experiments in triplicate
Description: Centrifuge at 25 °C at 1500 rpm for 5 min. Transfer 180 μL of supernatant to a 96-well plate and measure absorbance value at 540 nm. Normal saline was used as a negative control and 1% Triton X-100 solution as a positive control (complete hemolysis).

[17] = test system: E. coli; details: human serum:peptide solution (10 mg/mL) 4:1 v:v, 37 °C, read-out MIC, mean of three independent experiments in triplicate
Description: The same amount of solution was taken at each time point and gradient dilution was carried out with normal saline.

Compound: CC1(C)S[C@@H]2[C@H](NC(=O)[C@H](N)c3ccccc3)C(=O)N2[C@H]1C(=O)O [Ampicillin, reference compound]
- MBC ([1]; ATCC25922, 12 h): 16 µg/mL (≈ 45.8 µM)
- MIC ([2]; Klebsiella pneumoniae): > 128 µg/mL
- MIC ([3]; Klebsiella pneumoniae): > 128 µg/mL
- MIC ([4]; Klebsiella pneumoniae): > 128 µg/mL
- MIC ([5]; Klebsiella pneumoniae): > 128 µg/mL
- MIC ([6]; Klebsiella pneumoniae): > 128 µg/mL
- MIC ([7]; Cutibacterium acnes, ATCC6919): 0.25 µg/mL (≈ 0.715 µM)
- time at which bacteriostatic effect starts [8]: ≥ 1 h
- killing of E. coli within 8 h ([8]; 8 h): failed to completely kill
- killing rate ([8]; after 4 h): about 47%

Compound: KRFKKFFKKLRKSVKKRVKKFFKKPKVIGVSIPF [Hydrostatin-AMP2]
- MIC ([1]; broth microdilution (CLSI), MH broth, 10^6 CFU/mL, 37 °C, 16–20 h, absorbance 600 nm): 16 µg/mL
- MBC ([1]; minimum concentration killing 99.9% of bacteria, plating on MH agar, 37 °C, 12 h): 32 µg/mL
- MIC ([2]; K. pneumoniae 48, clinical isolate, broth microdilution, MH broth, 37 °C, 16–20 h): 16 µg/mL
- MIC ([3]; K. pneumoniae 49, clinical isolate, broth microdilution, MH broth, 37 °C, 16–20 h): 32 µg/mL
- MIC ([4]; K. pneumoniae 50, clinical isolate, broth microdilution, MH broth, 37 °C, 16–20 h): 32 µg/mL
- MIC ([5]; K. pneumoniae 51, clinical isolate, broth microdilution, MH broth, 37 °C, 16–20 h): 32 µg/mL
- MIC ([6]; Klebsiella pneumoniae 44, clinical isolate, broth microdilution, MH broth, 37 °C, 16–20 h): 32 µg/mL
- MIC ([7]; Propionibacterium acnes, broth microdilution, MH broth, 37 °C, 16–20 h): 32 µg/mL
- MIC [9]: 32 µg/mL
- inhibition of biofilm formation [10]: 71.02%
- MIC ([11]; Control (NaCl 0 mM, untreated peptide)): 16 µg/mL
- MIC ([11]; MH broth with CaCl2 1 mM): 64 µg/mL
- MIC ([11]; MH broth with CaCl2 2 mM): 64 µg/mL
- MIC ([11]; MH broth with CaCl2 4 mM): 128 µg/mL
- MIC ([11]; MH broth with NaCl 50 mM): 32 µg/mL
- MIC ([11]; MH broth with NaCl 100 mM): 32 µg/mL
- MIC ([11]; MH broth with NaCl 150 mM): 32 µg/mL
- MIC ([11]; MH broth with NaCl 200 mM): 64 µg/mL
- MIC after incubation at temperature ([12]; peptide incubated at 4 °C for 1 h): 32 µg/mL
- MIC after incubation at temperature ([12]; peptide incubated at 37 °C for 1 h): 32 µg/mL
- MIC after incubation at temperature ([12]; peptide incubated at 80 °C for 1 h): 32 µg/mL
- MIC after incubation at temperature ([12]; peptide incubated at 100 °C for 1 h): 64 µg/mL
- MIC after incubation at pH 2 ([13]; peptide incubated in PBS pH 2 for 4 h at 37 °C): 64 μg/mL
- MIC after incubation at pH 12 ([13]; peptide incubated in PBS pH 12 for 4 h at 37 °C): 64 μg/mL
- Cell Death [14]: 5.89%
- Cell Death [15]: 8.08%
- Hemolysis [16]: 4.6%
- MIC after incubation with human serum ([17]; 1 h): 32 µg/mL
- MIC after incubation with human serum ([17]; 2 h): 32 µg/mL
- MIC after incubation with human serum ([17]; 3 h): 32 µg/mL
